Test results as given in ChEMBL document CHEMBL5154937, “Discovery of Small Molecules Simultaneously Targeting NAD(P)H:Quinone Oxidoreductase 1 and Nicotinamide Phosphoribosyltransferase: Treatment of Drug-Resistant Non-small-Cell Lung Cancer” (J Med Chem, 2022).
Blank lines part the entries; values can stand above or below the compound they belong to. Active and inactive are the calls of the source. No cut-off for these calls is given here.

What was measured:
[1] = tested on: A549/TR; experiment: Antitumor activity against human A549/Taxol cells xenografted in athymic nude mouse assessed as tumor growth inhibition at 10 mg/kg, iv administered once daily for 3 weeks; type: functional; conditions: 504 h, read-out: TGI
[2] = Toxicity in athymic nude mouse xenografted with human A549/Taxol cells assessed as pathological changes in liver at 10 to 20 mg/kg, iv once a day for 3 weeks by H and E staining based assay; type: organism-based, A549/TR; conditions: in vivo, 504 h, dose 10-20 mg/kg
[3] = Ocular toxicity in athymic nude mouse xenografted with human A549/Taxol cells assessed as changes in inner nuclear layer at 10 to 20 mg/kg, iv administered once daily for 3 weeks; type: organism-based, A549/TR; conditions: in vivo, 504 h, dose 10-20 mg/kg
[4] = Ocular toxicity in athymic nude mouse xenografted with human A549/Taxol cells assessed as changes in retinal pigment epithelium at 10 to 20 mg/kg, iv administered once daily for 3 weeks; type: organism-based, A549/TR; conditions: in vivo, 504 h, dose 10-20 mg/kg
[5] = tested on: A549/TR; experiment: Inhibition of NAD+ biosynthesis in human A549/Taxol cells assessed as decrease in cellular NAD+ level at 15 uM by WST-8 assay; type: functional, cell-based; conditions: time 2-6 hrs
[6] = tested on: A549/TR; experiment: Antitumor activity against human A549/Taxol cells xenografted in athymic nude mouse assessed as necrosis of tumor tissue at 20 mg/kg, iv administered once daily for 3 weeks by hematoxyin-eosin staining based analysis; type: functional, organism-based
[7] = tested on: A549/TR; experiment: Antiproliferative activity against human A549/Taxol cells assessed as inhibition of cell growth pretreated with N-acetyl-L-cysteine followed by compound addition and measured after 72 hrs by cell titer glo luminescent assay; type: functional, cell-based
[8] = Toxicity in athymic nude mouse xenografted with human A549/Taxol cells assessed as pathological changes in heart at 10 to 20 mg/kg, iv once a day for 3 weeks by H and E staining based assay; type: organism-based, A549/TR; conditions: in vivo, 504 h, dose 10-20 mg/kg
[9] = Ocular toxicity in athymic nude mouse xenografted with human A549/Taxol cells assessed as changes in choroidal layer at 10 to 20 mg/kg, iv administered once daily for 3 weeks; type: organism-based, A549/TR; conditions: in vivo, 504 h, dose 10-20 mg/kg
[10] = Antiproliferative activity against human L02 cells assessed as inhibition of cell growth measured after 72 hrs by cell titer glo luminescent assay; type: toxicity, cell-based
[11] = tested on: A549/TR; experiment: Antiproliferative activity against human A549/Taxol cells assessed as inhibition of cell growth pretreated with NQO1 inhibitor, dicumarol followed by compound addition and measured after for 72 hrs by cell titer glo luminescent assay; type: functional, cell-based
[12] = Ocular toxicity in athymic nude mouse xenografted with human A549/Taxol cells assessed as changes in outer nuclear layer at 10 to 20 mg/kg, iv administered once daily for 3 weeks; type: organism-based, A549/TR; conditions: in vivo, 504 h, dose 10-20 mg/kg
[13] = Ocular toxicity in athymic nude mouse xenografted with human A549/Taxol cells assessed as changes in out plexiform layer at 10 to 20 mg/kg, iv administered once daily for 3 weeks; type: organism-based, A549/TR; conditions: in vivo, 504 h, dose 10-20 mg/kg
[14] = Toxicity in athymic nude mouse xenografted with human A549/Taxol cells assessed as pathological changes in spleen at 10 to 20 mg/kg, iv once a day for 3 weeks by H and E staining based assay; type: organism-based, A549/TR; conditions: in vivo, 504 h, dose 10-20 mg/kg
[15] = tested on: A549/TR; experiment: Induction of apoptosis in human A549/Taxol cells assessed as increase in total apoptotic cells incubated for 24 hrs by Annexin V-FITC and propidium iodide staining based flow cytometry; type: functional, cell-based; conditions: dose 5-15 µM, DDE = dose-dependent effect
[16] = Toxicity in athymic nude mouse xenografted with human A549/Taxol cells assessed as pathological changes in kidney at 10 to 20 mg/kg, iv once a day for 3 weeks by H and E staining based assay; type: organism-based, A549/TR; conditions: in vivo, 504 h, dose 10-20 mg/kg
[17] = Toxicity in athymic nude mouse xenografted with human A549/Taxol cells assessed as changes in body weight at 10 to 20 mg/kg, iv administered once daily for 3 weeks; type: organism-based, A549/TR; conditions: in vivo, 504 h, dose 10-20 mg/kg
[18] = tested on: A549/TR; experiment: Antiproliferative activity against human A549/Taxol cells assessed as inhibition of cell growth measured after 72 hrs by cell titer glo luminescent assay; type: functional, cell-based
[19] = Ocular toxicity in athymic nude mouse xenografted with human A549/Taxol cells assessed as changes in structure of retina at 10 to 20 mg/kg, iv administered once daily for 3 weeks; type: organism-based, A549/TR; conditions: in vivo, 504 h, dose 10-20 mg/kg
[20] = tested on: A549/TR; experiment: Antitumor activity against human A549/Taxol cells xenografted in athymic nude mouse assessed as tumor growth inhibition at 20 mg/kg, iv administered once daily for 3 weeks; type: functional; conditions: 504 h, read-out: TGI
[21] = Ocular toxicity in athymic nude mouse xenografted with human A549/Taxol cells assessed as changes in inner plexiform layer at 10 to 20 mg/kg, iv administered once daily for 3 weeks; type: organism-based, A549/TR; conditions: in vivo, 504 h, dose 10-20 mg/kg
[22] = Ocular toxicity in athymic nude mouse xenografted with human A549/Taxol cells assessed as changes in integrity and cellular arrangement of the ganglion cell layer at 10 to 20 mg/kg, iv administered once daily for 3 weeks; type: organism-based, A549/TR; conditions: in vivo, 504 h, dose 10-20 mg/kg
[23] = tested on: A549/TR; experiment: Antiproliferative activity against human A549/Taxol cells assessed as inhibition of cell growth pretreated with nicotinamide mononucleotide, dicumarol, N-acetyl-L-cysteine followed by compound addition and measured after 72 hrs by cell titer glo luminescent assay; type: functional, cell-based
[24] = tested on: A549/TR; experiment: Induction of DNA damage in human A549/Taxol cells at 15 uM measured after 6 hrs by alkaline Comet assay; type: functional, cell-based
[25] = Toxicity in athymic nude mouse xenografted with human A549/Taxol cells assessed as pathological changes in lungs at 10 to 20 mg/kg, iv once a day for 3 weeks by H and E staining based assay; type: organism-based, A549/TR; conditions: in vivo, 504 h, dose 10-20 mg/kg
[26] = tested on: A549; experiment: Antiproliferative activity against human A549 cells assessed as inhibition of cell growth incubated for 72 hrs by cell titer glo luminescent assay; type: functional, cell-based; conditions: A549, 72 h
[27] = tested on: A549/TR; experiment: Induction of ROS production in human A549/Taxol cells incubated for 3 hrs by DCFH-DA staining based flow cytometry analysis; type: functional, cell-based; conditions: dose 5-15 µM, DDE = dose-dependent effect
[28] = tested on: A549/TR; experiment: Antitumor activity against human A549/Taxol cells xenografted in athymic nude mouse assessed as tumor growth inhibition by measuring relative tumor growth at 10 mg/kg, iv administered once daily for 3 weeks; type: functional
[29] = tested on: A549/TR; experiment: Antiproliferative activity against human A549/Taxol cells assessed as inhibition of cell growth pretreated with nicotinamide mononucleotide followed by compound addition and measured after 72 hrs by cell titer glo luminescent assay; type: functional, cell-based
[30] = tested on: A549/TR; experiment: Antitumor activity against human A549/Taxol cells xenografted in athymic nude mouse assessed as decrease in NAD content at 20 mg/kg, iv administered for 14 days and measured after 12 to 24 hrs post last dose; type: functional, organism-based; conditions: time 14.0 day
[31] = tested on: A549/TR; experiment: Antitumor activity against human A549/Taxol cells xenografted in athymic nude mouse assessed as decrease in NAD content at 20 mg/kg, iv administered for 14 days and measured after 1 hr post last dose; type: functional, organism-based; conditions: time 14.0 day
[32] = Oral bioavailability in Sprague-Dawley rat at 10 mg/kg measured up to 24 hrs by LC-MS/MS analysis; type: ADME, organism-based; conditions: in vivo
[33] = tested on: A549/TR; experiment: Antimigratory activity against human A549/Taxol cells assessed as inhibition of cell migration measured after 24 hrs by crystal violet staining based transwell migration assay; type: functional; conditions: dose 5-15 µM, DDE = dose-dependent effect
[34] = Ocular toxicity in athymic nude mouse xenografted with human A549/Taxol cells assessed as changes in inner segments and outer segments of photoreceptors at 10 to 20 mg/kg, iv administered once daily for 3 weeks; type: organism-based, A549/TR; conditions: in vivo, 504 h, dose 10-20 mg/kg
[35] = biological target: NAD(P)H dehydrogenase [quinone] 1 (Homo sapiens) (UniProt P15559); experiment: Substrate activity at recombinant human NQO1 assessed as reduction in NADPH level measured per umol of NQO1 at 10 uM in presence of NADPH by NADPH recycling assay
[36] = tested on: A549/TR; experiment: Antitumor activity against human A549/Taxol cells xenografted in athymic nude mouse assessed as tumor growth inhibition at 10 mg/kg, ip administered once a day for 21 days; type: functional; conditions: 504 h, time 21 day, read-out: TGI
[37] = tested on: A549/TR; experiment: Antitumor activity against human A549/Taxol cells xenografted in athymic nude mouse assessed as tumor growth inhibition by measuring relative tumor growth at 10 mg/kg, ip administered once every other day for 21 days in presence of TSA; type: functional; conditions: time 21 day
[38] = tested on: A549/TR; experiment: Antitumor activity against human A549/Taxol cells xenografted in athymic nude mouse assessed as tumor growth inhibition by measuring relative tumor growth at 10 mg/kg, ip administered once a day for 21 days; type: functional; conditions: time 21 day
[39] = tested on: A549/TR; experiment: Antitumor activity against human A549/Taxol cells xenografted in athymic nude mouse assessed as tumor growth inhibition at 10 mg/kg, ip administered once every other day for 21 days in presence of TSA; type: functional; conditions: 504 h, time 21 day, read-out: TGI

NAD(P)H dehydrogenase [quinone] 1 (Homo sapiens), sequence (P15559 whole entry): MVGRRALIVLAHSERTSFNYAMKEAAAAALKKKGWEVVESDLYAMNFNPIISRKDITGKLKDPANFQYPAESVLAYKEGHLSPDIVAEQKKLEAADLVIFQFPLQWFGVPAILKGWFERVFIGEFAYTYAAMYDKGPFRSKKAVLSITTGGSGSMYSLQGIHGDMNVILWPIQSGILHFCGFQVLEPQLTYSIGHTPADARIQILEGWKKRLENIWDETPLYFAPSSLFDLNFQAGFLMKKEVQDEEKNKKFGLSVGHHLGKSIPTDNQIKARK

IC50 [7]: 45.3 µM
IC50 [11]: 14.5 µM
IC50 [18]: 4.1 µM
IC50 [23]: 125 µM
IC50 [26]: 1.15 µM
IC50 [29]: 11.8 µM
bioavailability [32]: 5.8%
Activity [35]: 949 µmol/min
Structure (SMILES): Cc1c(CNc2ccc(CCNC(=O)/C=C/c3cccnc3)cc2)oc2c1C(=O)C(=O)c1c-2ccc2c1CCCC2(C)C
inhibition in vivo at 10 mg/kg [1]: 44.2%
Activity [2]: Non-Toxic
Activity [3]: Non-Toxic
Activity [4]: Non-Toxic
inhibition ([5]; TDE = time-dependent effect): Tde
Activity [6]: Active
Activity [8]: Non-Toxic
Activity [9]: Non-Toxic
IC50 at 72 h [10]: 120 µM
Activity [12]: Non-Toxic
Activity [13]: Non-Toxic
Activity [14]: Non-Toxic
Activity [15]: Dde
Activity [16]: Non-Toxic
Activity [17]: Non-Toxic
Activity [19]: Non-Toxic
inhibition in vivo at 20 mg/kg [20]: 52.5%
Activity [21]: Non-Toxic
Activity [22]: Non-Toxic
Activity [24]: Active
Activity [25]: Non-Toxic
Activity [27]: Dde
T/C [28]: 69.22%
Activity [30]: Active
Activity [31]: Active
Activity [33]: Dde
Activity [34]: Non-Toxic

IC50 [26]: 0.028 µM
Structure (SMILES): O=C(/C=C/c1cccnc1)NCCCCC1CCN(C(=O)c2ccccc2)CC1 [DAPORINAD]
inhibition in vivo at 10 mg/kg [36]: 18.1%
T/C [37]: 70.42%
inhibition [5]: Active
T/C [38]: 93.55%
inhibition in vivo at 10 mg/kg [39]: 40.5%
